# Assay results as given in patent US6667335B2, “Imidazole derivatives” (Hoffmann-La Roche Inc., priority 2001, dated 2003).
# Where a name gives a salt, the structure may show the parent alone.
# Assays:
# [1] = biological target: T1, NMDA-receptor subtype 2B (Rattus norvegicus, UniProt P35439+Q00960); test: 3H-Ro 25-6981 binding (displacement) on rat brain membranes; details: displacement of 5 nM 3H-Ro 25-6981, rat whole brain membranes (minus cerebellum and medulla oblongata), 2 hours at 4° C.
# T1 construct: Membranes were prepared by homogenization of the whole brain minus cerebellum and medulla oblongata; from tissue; host or cells: rat whole brain minus cerebellum and medulla oblongata, membrane preparation
# T1 sequence (Q00960 27-1482, other chains not shown): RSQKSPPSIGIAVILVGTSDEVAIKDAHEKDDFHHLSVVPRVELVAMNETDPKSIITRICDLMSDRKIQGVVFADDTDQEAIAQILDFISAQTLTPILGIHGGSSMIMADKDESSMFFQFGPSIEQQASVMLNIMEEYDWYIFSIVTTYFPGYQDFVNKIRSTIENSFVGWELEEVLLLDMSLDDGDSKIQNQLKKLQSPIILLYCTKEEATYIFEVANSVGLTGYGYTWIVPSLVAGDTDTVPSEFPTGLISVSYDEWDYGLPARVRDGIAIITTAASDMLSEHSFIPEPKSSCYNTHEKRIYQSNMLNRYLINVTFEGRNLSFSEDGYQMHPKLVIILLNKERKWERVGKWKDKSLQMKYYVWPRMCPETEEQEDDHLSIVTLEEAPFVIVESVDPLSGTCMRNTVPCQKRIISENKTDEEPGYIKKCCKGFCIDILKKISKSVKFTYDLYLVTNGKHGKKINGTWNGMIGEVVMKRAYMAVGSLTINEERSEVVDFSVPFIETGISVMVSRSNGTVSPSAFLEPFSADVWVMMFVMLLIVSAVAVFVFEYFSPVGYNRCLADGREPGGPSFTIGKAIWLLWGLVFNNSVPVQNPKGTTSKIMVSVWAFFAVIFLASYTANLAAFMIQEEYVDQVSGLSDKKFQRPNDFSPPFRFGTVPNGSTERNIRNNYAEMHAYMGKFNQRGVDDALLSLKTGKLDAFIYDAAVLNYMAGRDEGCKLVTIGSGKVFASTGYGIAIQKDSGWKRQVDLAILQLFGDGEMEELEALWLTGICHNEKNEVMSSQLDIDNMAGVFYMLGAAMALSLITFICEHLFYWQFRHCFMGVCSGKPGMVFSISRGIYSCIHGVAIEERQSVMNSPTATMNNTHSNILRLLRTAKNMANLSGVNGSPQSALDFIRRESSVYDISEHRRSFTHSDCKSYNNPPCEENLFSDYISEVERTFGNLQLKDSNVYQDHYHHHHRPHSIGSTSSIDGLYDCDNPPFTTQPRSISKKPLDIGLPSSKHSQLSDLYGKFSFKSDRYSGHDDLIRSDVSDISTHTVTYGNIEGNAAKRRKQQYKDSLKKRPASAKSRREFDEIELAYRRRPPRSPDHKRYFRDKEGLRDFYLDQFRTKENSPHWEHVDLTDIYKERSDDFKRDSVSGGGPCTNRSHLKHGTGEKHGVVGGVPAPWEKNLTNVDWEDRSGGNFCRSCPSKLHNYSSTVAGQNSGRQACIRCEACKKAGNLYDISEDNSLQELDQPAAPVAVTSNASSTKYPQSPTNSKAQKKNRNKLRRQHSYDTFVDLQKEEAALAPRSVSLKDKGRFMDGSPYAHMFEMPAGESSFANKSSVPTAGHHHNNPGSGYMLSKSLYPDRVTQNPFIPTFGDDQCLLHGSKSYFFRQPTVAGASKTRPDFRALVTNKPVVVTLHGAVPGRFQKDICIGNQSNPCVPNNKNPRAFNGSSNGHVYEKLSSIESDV
# Experimental: ^3H[R-(R*,S*)]-(α-(4-Hydroxy-phenyl)-β-methyl-4-(phenyl-methyl)-1-piperidine propanol)binding
# Male Füllinsdorf albino rats weighing between 150-200 g were used. Membranes were prepared by homogenization of the whole brain minus cerebellum and medulla oblongata with a Polytron (10.000 rpm, 30 seconds), in 25 volumes of a cold Tris-HCl 50 mM, EDTA 10 mM, pH 7.1 buffer. The homogenate was centrifuged at 48,000 g for 10 minutes at 4° C. The pellet was resuspended using the Polytron in the same volume of buffer and the homogenate was incubated at 37° C. for 10 minutes. After centrifugation the pellet was homogenized in the same buffer and frozen at −80° C. for at least 16 hours but not more than 10 days. For the binding assay the homogenate was thawed at 37° C., centrifuged and the pellet was washed three times as above in a Tris-HCl 5 mM, pH 7.4 cold buffer. The final pellet was resuspended in the same buffer and used at a final concentration of […]. ^3H-Ro 25-6981 binding experiments were performed using a Tris-HCl 50 mM, pH 7.4 buffer. For displacement experiments 5 nM of ^3H-Ro 25-6981 were used and non specific binding was measured using 10 mM of tetrahydroisoquinoline and usually it accounts for 10% of the total. The incubation time was 2 hours at 4° C. and the assay was stopped by filtration on Whatmann GF/B glass fiber filters (Unifilter-96, Packard, Zürich, Switzerland). The filters were washed 5 times with cold buffer. The radioactivity on the filter was counted on a Packard Top-count microplate scintillation counter after addition of […] of microscint 40 (Canberra Packard S.A., Zuirich, Switzerland).
# The effects of compounds were measured using a minimum of 8 concentrations and repeated at least once.
melting point,IC50 [1],Compound
241 to 243 °C,7 nM,"CCCc1nccn1Cc1cn(-c2ccc(Cl)c(Cl)c2)cn1.Cl.Cl [Example 1, 1H-Imidazole, 1-[[1-(3,4-Dichlorophenyl)-1H-imidazol-4-yl]methyl]-2-propyl-, Hydrochloride (1:2)]"
> 250 °C,10 nM,"Cc1nccn1Cc1cn(-c2ccc(Cl)c(Cl)c2)cn1.Cl.Cl [Example 2, 1H-Imidazole, 1-[[1-(3,4-Dichlorophenyl)-1H-imidazol-4-yl]methyl]-2-methyl-, Hydrochloride (1:2)]"
> 250 °C,12 nM,"CCc1nccn1Cc1cn(-c2ccc(Cl)c(Cl)c2)cn1.Cl.Cl [Example 3, 1H-Imidazole, 1-[[1-(3,4-Dichlorophenyl)-1H-imidazol-4-yl]methyl]-2-ethyl-, Hydrochloride (1:2)]"
236 to 238 °C (dec.),17 nM,"CC(C)c1nccn1Cc1cn(-c2ccc(Cl)c(Cl)c2)cn1.Cl.Cl [Example 4, 1H-Imidazole, 1-[[1-(3,4-Dichlorophenyl)-1H-imidazol-4-yl]methyl]-2-(1-methylethyl)-, Hydrochloride (1:2)]"
186 to 187 °C,4 nM,"CCc1nccn1Cc1cn(-c2ccc(Cl)c(C)c2)cn1.Cl.Cl [Example 10, 1H-Imidazole, 1-[[1-(4-Chloro-3-methylphenyl)-1H-imidazol-4-yl]methyl]-2-ethyl-, Hydrochloride (1:2)]"
218 to 220 °C,5 nM,"Cc1cc(-n2cnc(Cn3ccnc3C)c2)ccc1Cl.Cl.Cl [Example 11, 1H-Imidazole, 1-[[1-(4-Chloro-3-methylphenyl)-1H-imidazol-4-yl]methyl]-2-methyl-, Hydrochloride (1:2)]"
206 to 207 °C,8 nM,"Cc1cc(-n2cnc(Cn3ccnc3)c2)ccc1Cl.Cl.Cl [Example 12, 1H-Imidazole, 1-(4-Chloro-3-methylphenyl)-4-(1H-imidazol-1-yl-methyl)-, Hydrochloride (1:2)]"
> 250 °C,95 nM,"Cc1cc(-n2cnc(Cn3cnc(C)c3C)c2)ccc1Cl.Cl.Cl [Example 13, 1H-Imidazole, 1-[[1-(4-Chloro-3-methylphenyl)-1H-imidazol-4-yl]methyl]-4,5-dimethyl-, Hydrochloride (1:2)]"
242 to 243 °C,9 nM,"Cc1nccn1Cc1cn(-c2ccc3c(c2)CCC3)cn1.Cl.Cl [Example 16, 1H-Imidazole, 1-[[1-(2,3-Dihydro-1H-inden-5-yl)-1H-imidazol-4-yl]methyl]-2-methyl-, Hydrochloride (1:2)]"
240 to 241 °C,12 nM,"CCc1nccn1Cc1cn(-c2ccc3c(c2)CCC3)cn1.Cl.Cl [Example 17, 1H-Imidazole, 1-[[1-(2,3-Dihydro-1H-inden-5-yl)-1H-imidazol-4-yl]methyl]-2-ethyl-, Hydrochloride (1:2)]"
210 to 212 °C,16 nM,"Cc1cc(-n2cnc(Cn3ccnc3C)c2)ccc1F.Cl.Cl [Example 24, 1H-Imidazole, 1-[[1-(4-Fluoro-3-methylphenyl)-1H-imidazol-4-yl]methyl]-2-methyl-, Hydrochloride (1:2)]"
> 235 °C (dec.),43 nM,"Cc1ccc(-n2cnc(Cn3ccnc3C)c2)cc1C(F)(F)F.Cl.Cl [Example 39, 1H-Imidazole, 2-Methyl-1-[[1-[4-methyl-3-(trifluoromethyl)phenyl]-1H-imidazol-4-yl]methyl]-, Hydrochloride (1:2)]"
–,80 nM,"Cc1ccc(-c2cncc(Cn3ccnc3C)c2)cc1Cl [Example 136, 3-(3-Chloro-4-methyl-phenyl)-5-(2-methyl-imidazol-1-yl-methyl)-pyridine Hydrochloride (1:1)]"
–,65 nM,"Cc1nccn1Cc1cncc(-c2ccc3c(c2)CCC3)c1 [Example 139, 3-Indan-5-yl-5-(2-methyl-imidazol-1-yl-methyl)-pyridine Hydrochloride (1:1)]"
–,40 nM,"Cc1nccn1Cc1cncc(-c2ccc(F)c(Cl)c2)c1 [Example 140, 3-(3-Chloro-4-fluoro-phenyl)-5-(2-methyl-imidazol-1-yl-methyl)-pyridine Hydrochloride (1:1)]"
–,39 nM,"Cc1nccn1Cc1cncc(-c2ccc(Cl)c(C(F)(F)F)c2)c1 [Example 141, 3-(4-Chloro-3-trifluoromethyl-phenyl)-5-(-2-methyl-imidazol-1-yl-methyl)-pyridine Hydrochloride (1:1)]"
–,7.3 nM,CCc1nccn1Cc1cn(-c2cccc(SC(F)(F)F)c2)cn1 [Example 143]
–,14 nM,"CCc1nccn1Cc1cn(-c2ccc(F)c(C(C)(F)F)c2)cn1 [Example 151, 1H-Imidazole, 1-[[1-1-[3-(1,1-Difluoroethyl)-4-fluorophenyl]-1H-imidazol-4-yl]methyl]-ethyl-, Hydrochloride (1:2)]"
–,20 nM,CCc1nccn1Cc1cn(-c2cccc(C(C)C)c2)cn1 [Example 153]
–,10 nM,"Cc1nccn1Cc1cn(-c2ccc3ccccc3c2)cn1 [Example 155, 1H-Imidazole, 2-Methyl-1-[[1-(naphtalen-2-yl)-1H-imidazol-4-yl]methyl]-, Hydrochloride (1:2)]"
–,30 nM,"CCc1nccn1Cc1cn(-c2ccc(F)c(C(F)F)c2)cn1 [Example 164, 1H-Imidazole, 1-[[1-(3-Difluoromethyl-4-fluorophenyl)-1H-imidazol-4-yl]methyl]-2-ethyl-, Hydrochloride (1:2)]"
–,38 nM,"CSc1cccc(-n2cnc(Cn3ccnc3)c2)c1 [Example 168, 4-Imidazol-1-ylmethyl-1-(3-methylsulfanyl-phenyl)-1H-imidazole Hydrochloride (1:2)]"
–,28 nM,Cc1nccn1Cc1cn(-c2cccc(Cl)c2)cn1 [Example 173]
–,53 nM,CCc1nccn1Cc1cn(-c2cc(OC)cc(C(F)(F)F)c2)cn1 [Example 181]
–,10 nM,"Cc1nccn1Cc1cncc(-c2ccc(F)c(C(F)F)c2)c1 [Example 225, 3-(3-Difluoromethyl-4-fluoro-phenyl)-5-(2-methyl-imidazol-1-ylmethyl)-pyridine]"
–,20 nM,"Cc1nccn1Cc1cncc(-c2cccc(C(C)(F)F)c2)c1 [Example 226, 3-[3-(1,1-Difluoro-ethyl)-phenyl]-5-(2-methyl-imidazol-1-ylmethyl)-pyridine]"
–,30 nM,"Cc1nccn1Cc1cncc(-c2cc(F)cc(C(F)(F)F)c2)c1 [Example 227, 3-(3-Fluoro-5-trifluoromethyl-phenyl)-5-(2-methyl-imidazol-1-ylmethyl)-pyridine]"
–,12 nM,"Clc1ccc(-n2cnc(Cn3ccnc3C3CC3)c2)cc1Cl [Example 229, 1H-Imidazole, 2-Cyclopropyl-1-[[1-(3,4-dichlorophenyl)-1H-imidazol-4-yl]methyl]-,]"
–,84 nM,"Cc1cc(-c2cnc(Cn3ccnc3C)n2C)ccc1F [Example 230, 5-(4-Fluoro-3-methyl-phenyl)-1-methyl-2-(2-methyl-imidazol-1-ylmethyl)-1-H-imidazole Hydrochloride (1:1)]"
–,40 nM,"Cc1cc(-c2cnc(Cn3ccnc3C)n2C)ccc1Cl [Example 232, 5-(4-Chloro-3-methyl-phenyl)-1-methyl-2-(2-methyl-imidazol-1-ylmethyl)-1-H-imidazole-hydrochloride Hydrochloride (1:1)]"
